Laboratory results published in ChEMBL document CHEMBL4706551, “Rational design of new multitarget histamine H receptor ligands as potential candidates for treatment of Alzheimer's disease” (Eur J Med Chem, 2020).
Activity calls are given as the source filed them. The calls are words filed in the database; no cut-off is given here.

Tests used:
[1] = target: T1, Amine oxidase [flavin-containing] B (Homo sapiens, UniProt P27338); test: biochemical; assay type: cell-based, BTI
T1 sequence (P27338 whole entry): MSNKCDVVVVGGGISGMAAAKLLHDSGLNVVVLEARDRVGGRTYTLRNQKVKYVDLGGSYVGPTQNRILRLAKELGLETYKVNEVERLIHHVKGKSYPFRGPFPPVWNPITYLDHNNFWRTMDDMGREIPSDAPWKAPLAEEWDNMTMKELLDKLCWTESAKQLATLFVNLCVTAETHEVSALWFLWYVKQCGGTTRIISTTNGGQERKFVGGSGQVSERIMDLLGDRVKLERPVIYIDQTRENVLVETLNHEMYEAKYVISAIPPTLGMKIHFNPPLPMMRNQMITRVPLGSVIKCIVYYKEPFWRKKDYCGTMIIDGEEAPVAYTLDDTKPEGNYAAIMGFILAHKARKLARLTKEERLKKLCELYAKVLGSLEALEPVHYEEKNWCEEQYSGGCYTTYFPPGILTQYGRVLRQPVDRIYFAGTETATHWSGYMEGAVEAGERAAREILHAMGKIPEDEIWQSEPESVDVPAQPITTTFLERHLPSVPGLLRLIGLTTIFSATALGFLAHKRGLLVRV
Description: Inhibition of recombinant human MAO-B expressed in baculovirus infected BTI cells using p-tyramine as substrate by fluorometric assay

[2] = target: T2, MAO-A (Homo sapiens, UniProt P21397); test: Inhibition of recombinant human MAO-A expressed in baculovirus infected BTI cells at 10 uM using p-tyramine as substrate by fluorometric assay relative to control; settings: probe p-tyramine
T2 sequence (P21397 whole entry): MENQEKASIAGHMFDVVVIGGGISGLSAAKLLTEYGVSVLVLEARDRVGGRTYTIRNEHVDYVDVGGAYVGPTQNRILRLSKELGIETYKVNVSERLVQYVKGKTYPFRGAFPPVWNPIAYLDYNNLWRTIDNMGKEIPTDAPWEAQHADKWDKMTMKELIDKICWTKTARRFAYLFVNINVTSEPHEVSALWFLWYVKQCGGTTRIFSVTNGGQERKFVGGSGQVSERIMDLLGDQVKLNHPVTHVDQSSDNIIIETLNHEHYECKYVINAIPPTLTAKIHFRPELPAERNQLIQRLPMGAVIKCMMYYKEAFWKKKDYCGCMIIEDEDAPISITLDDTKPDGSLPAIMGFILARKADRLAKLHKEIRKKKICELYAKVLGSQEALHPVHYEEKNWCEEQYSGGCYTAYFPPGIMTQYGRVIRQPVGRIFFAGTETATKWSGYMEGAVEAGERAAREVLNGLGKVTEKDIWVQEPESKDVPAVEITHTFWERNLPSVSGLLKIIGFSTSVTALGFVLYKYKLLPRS

[3] = target: Acetylcholinesterase (Homo sapiens, UniProt P22303); test: Inhibition of recombinant human AChE using ATCI as substrate incubated for 5 mins followed by substrate addition and measured after 5 mins by spectrophotometric based Ellman's method
Sequence of Acetylcholinesterase (Homo sapiens, UniProt P22303) (P22303 whole entry): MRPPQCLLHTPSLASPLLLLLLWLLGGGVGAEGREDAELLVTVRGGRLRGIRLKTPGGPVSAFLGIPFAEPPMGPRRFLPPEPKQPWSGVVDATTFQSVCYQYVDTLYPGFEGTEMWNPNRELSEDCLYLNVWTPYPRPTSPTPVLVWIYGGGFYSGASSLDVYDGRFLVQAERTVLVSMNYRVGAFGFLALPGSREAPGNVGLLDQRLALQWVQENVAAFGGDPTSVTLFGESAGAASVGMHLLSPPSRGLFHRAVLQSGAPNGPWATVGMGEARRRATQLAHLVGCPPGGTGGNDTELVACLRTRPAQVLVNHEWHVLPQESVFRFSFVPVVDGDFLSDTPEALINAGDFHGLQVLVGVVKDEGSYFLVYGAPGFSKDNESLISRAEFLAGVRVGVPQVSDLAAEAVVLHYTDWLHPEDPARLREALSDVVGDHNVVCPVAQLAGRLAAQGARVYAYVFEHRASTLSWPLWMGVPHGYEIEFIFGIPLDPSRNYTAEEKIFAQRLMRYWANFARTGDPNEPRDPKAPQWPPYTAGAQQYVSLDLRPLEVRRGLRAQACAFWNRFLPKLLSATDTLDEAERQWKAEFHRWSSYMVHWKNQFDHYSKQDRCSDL

[4] = system: Mus musculus; test: (§1) Analgesic activity in formalin-induced nociception CD-1 mouse model assessed as reduction in pain behaviour by measuring less licking of formalin injected hind paw compound administered intraperitoneally prior to formalin induction and measured during early phase (0 to 5 mins after formalin injection) by formalin test; assay type: functional; settings: CD-1, ip, time 0-5 min
[5] = system: Mus musculus; test: as §1, with “late” for “early”, “(15” for “(0”, “30” for “5”; assay type: functional; settings: CD-1, ip, time 15-30 min
[6] = system: Rattus norvegicus; test: Memory enhancement effect in dizocilpine-induced Wistar (Krf:WI) rat model of amnesia assessed as increase in step through latency at 1.25 to 5 mg/kg, ip measured after 30 to 45 mins by step-through passive avoidance test; assay type: functional, organism-based; settings: dose 1.25-5 mg/kg, time 30-45 min
[7] = system: Rattus norvegicus; test: Memory enhancement effect in dizocilpine-induced Wistar (Krf:WI) rat model of amnesia assessed as decrease in transfer latency time at 1.25 to 5 mg/kg, ip measured after 30 to 45 mins by elevated plus maze test; assay type: functional, organism-based; settings: dose 1.25-5 mg/kg, time 30-45 min
[8] = target: Acetylcholinesterase (Electrophorus electricus) (UniProt O42275); test: Non-competitive inhibition of Electric eel AChE using ATCI as substrate incubated for 5 mins followed by substrate addition and measured after 5 mins by spectrophotometric based Lineweaver-Burk plot analysis; settings: time 10.0 min
Sequence of Acetylcholinesterase (Electrophorus electricus) (O42275 24-633 limits assumed): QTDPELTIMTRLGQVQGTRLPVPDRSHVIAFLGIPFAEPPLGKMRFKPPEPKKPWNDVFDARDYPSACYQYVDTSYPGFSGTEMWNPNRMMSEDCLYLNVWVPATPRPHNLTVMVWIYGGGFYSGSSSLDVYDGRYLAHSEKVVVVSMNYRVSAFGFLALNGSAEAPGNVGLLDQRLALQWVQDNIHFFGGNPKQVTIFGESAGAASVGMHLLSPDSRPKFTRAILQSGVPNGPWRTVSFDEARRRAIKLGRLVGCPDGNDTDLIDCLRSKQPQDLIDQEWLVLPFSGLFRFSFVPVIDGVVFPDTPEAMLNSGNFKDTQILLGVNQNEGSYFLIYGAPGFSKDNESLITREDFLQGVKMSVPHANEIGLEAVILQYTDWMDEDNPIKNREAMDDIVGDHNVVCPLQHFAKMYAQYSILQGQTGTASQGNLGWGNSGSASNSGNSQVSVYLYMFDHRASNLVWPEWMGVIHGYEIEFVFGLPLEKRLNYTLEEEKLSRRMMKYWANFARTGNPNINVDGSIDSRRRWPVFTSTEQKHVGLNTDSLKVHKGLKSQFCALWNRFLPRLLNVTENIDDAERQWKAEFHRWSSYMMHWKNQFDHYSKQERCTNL

[9] = target: Acetylcholinesterase (Electrophorus electricus) (UniProt O42275); test: Non-competitive inhibition of Electric eel AChE using ATCI as substrate incubated for 5 mins followed by substrate addition and measured after 5 mins by spectrophotometric based Cornish-Bowden plot analysis; settings: time 10.0 min
[10] = target: Cholinesterase (Equus caballus) (UniProt P81908); test: Non-competitive inhibition of equine serum BChE using BTCI as substrate incubated for 5 mins followed by substrate addition and measured after 5 mins by spectrophotometric based Lineweaver-Burk plot analysis; assay type: cell-free; settings: time 10.0 min
Sequence of Cholinesterase (Equus caballus) (P81908 whole entry): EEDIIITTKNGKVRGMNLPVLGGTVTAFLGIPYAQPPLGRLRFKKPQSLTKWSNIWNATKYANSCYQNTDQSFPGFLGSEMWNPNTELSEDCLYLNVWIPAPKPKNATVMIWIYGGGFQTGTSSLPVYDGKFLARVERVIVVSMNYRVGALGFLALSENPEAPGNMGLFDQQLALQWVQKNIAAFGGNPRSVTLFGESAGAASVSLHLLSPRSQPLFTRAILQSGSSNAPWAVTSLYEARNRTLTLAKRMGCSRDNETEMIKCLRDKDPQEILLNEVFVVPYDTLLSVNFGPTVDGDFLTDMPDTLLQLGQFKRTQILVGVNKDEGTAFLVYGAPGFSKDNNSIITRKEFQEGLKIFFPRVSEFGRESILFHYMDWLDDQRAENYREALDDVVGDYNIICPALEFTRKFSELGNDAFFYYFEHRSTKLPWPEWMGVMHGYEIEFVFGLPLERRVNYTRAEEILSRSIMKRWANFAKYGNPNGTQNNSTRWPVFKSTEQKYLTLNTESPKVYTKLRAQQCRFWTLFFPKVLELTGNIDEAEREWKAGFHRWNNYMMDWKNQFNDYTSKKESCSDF

[11] = target: Cholinesterase (Equus caballus) (UniProt P81908); test: Non-competitive inhibition of equine serum BChE using BTCI as substrate incubated for 5 mins followed by substrate addition and measured after 5 mins by spectrophotometric based Cornish-Bowden plot analysis; assay type: cell-free; settings: time 10.0 min
[12] = target: Acetylcholinesterase (Electrophorus electricus, UniProt O42275)
Sequence of Acetylcholinesterase (Electrophorus electricus, UniProt O42275) (O42275 whole entry): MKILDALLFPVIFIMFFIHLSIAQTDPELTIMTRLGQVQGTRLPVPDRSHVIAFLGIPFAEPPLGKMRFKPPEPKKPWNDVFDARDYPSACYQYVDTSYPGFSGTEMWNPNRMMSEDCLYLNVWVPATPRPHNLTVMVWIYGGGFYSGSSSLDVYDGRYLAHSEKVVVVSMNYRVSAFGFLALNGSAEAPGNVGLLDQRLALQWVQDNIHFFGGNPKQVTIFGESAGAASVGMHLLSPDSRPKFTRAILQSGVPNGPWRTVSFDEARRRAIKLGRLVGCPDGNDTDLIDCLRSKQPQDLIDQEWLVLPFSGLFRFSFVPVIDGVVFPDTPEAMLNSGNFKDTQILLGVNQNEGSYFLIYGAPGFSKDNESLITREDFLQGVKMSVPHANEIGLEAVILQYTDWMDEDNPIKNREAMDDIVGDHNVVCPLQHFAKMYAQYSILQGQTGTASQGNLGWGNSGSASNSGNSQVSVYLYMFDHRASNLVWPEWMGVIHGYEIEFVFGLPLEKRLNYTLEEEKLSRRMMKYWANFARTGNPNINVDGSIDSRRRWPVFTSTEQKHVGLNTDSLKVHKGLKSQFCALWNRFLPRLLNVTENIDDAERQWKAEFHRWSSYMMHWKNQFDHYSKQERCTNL
Description: Inhibition of Electric eel AChE using ATCI as substrate incubated for 5 mins followed by substrate addition and measured after 5 mins by spectrophotometric based Ellman's method

[13] = target: Cholinesterase (Equus caballus, UniProt P81908)
Sequence of Cholinesterase (Equus caballus, UniProt P81908) (P81908 whole entry): as the sequence (P81908 whole entry) above
Description: Inhibition of equine serum BChE using BTCI as substrate incubated for 5 mins followed by substrate addition and measured after 5 mins by spectrophotometric based Ellman's method

[14] = target: Cholinesterase (Homo sapiens, UniProt P06276)
Sequence of Cholinesterase (Homo sapiens, UniProt P06276) (P06276 whole entry): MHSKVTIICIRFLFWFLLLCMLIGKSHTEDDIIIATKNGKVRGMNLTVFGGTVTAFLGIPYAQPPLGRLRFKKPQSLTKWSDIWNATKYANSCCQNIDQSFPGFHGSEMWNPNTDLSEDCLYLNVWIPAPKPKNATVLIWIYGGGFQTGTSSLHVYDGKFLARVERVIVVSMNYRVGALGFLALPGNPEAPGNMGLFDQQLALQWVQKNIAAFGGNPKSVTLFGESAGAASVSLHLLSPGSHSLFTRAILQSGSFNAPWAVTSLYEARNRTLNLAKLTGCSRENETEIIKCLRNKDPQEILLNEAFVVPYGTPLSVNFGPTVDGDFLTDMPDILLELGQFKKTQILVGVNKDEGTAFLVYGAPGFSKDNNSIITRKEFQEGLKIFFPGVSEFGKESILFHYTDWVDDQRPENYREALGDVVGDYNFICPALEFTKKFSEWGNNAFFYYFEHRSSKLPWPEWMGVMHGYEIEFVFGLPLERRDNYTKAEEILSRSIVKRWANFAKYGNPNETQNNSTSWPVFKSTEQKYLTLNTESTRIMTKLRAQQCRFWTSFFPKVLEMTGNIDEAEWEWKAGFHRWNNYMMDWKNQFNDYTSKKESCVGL
Description: Inhibition of human BuChE by spectrophotometric based Ellman's method

[15] = target: T2, MAO-A; test: in vitro; settings: probe p-tyramine
Description: Inhibition of recombinant human MAO-A expressed in baculovirus infected BTI cells at 1 uM using p-tyramine as substrate by fluorometric assay relative to control

[16] = in vitro; settings: PAMPA, pH 7.4
Description: Permeability of compound in PBS buffer assessed as permeability coefficient at pH 7.4 at 200 uM incubated for 5 hrs by PAMPA based LC-MS analysis

[17] = target: Histamine H3 receptor (Homo sapiens, UniProt Q9Y5N1); test: biochemical
Sequence of Histamine H3 receptor (Q9Y5N1 whole entry): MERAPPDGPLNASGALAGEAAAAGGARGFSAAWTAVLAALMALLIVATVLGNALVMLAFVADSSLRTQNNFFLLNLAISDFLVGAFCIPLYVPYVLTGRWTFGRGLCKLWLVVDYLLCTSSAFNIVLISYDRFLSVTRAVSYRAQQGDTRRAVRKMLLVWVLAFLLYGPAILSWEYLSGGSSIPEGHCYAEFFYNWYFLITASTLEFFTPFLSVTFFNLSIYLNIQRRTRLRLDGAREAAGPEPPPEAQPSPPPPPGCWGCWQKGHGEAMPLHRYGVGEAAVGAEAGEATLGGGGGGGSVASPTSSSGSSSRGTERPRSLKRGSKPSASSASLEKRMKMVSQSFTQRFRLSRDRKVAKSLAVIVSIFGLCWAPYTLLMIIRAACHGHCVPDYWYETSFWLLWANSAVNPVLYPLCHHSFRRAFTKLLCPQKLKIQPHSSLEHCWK
Description: Displacement of [3H]N-alpha-methylhistamine from recombinant human histamine H3 receptor expressed in CHO-K1 cells by microbeta scintillation analysis

| Structure (SMILES) | IC50 [1] | inhibition at 10 µM [2] | IC50 [3] | ED50 [4] | ED50 [5] | Activity [6] | Activity [7] | inhibition [8] | inhibition [9] | inhibition [10] | inhibition [11] | IC50 [12] | IC50 [13] | IC50 [14] | inhibition at 1 µM [15] | Papp at 5 h, 200 µM [16] | Ki [17] |
| --- | --- | --- | --- | --- | --- | --- | --- | --- | --- | --- | --- | --- | --- | --- | --- | --- | --- |
| O=c1c2cc(Cl)ccc2oc2ccc(OCCCCCN3CCCCCC3)cc12 | 897 nM | < 50% | 120 nM | 27.3 mg/kg | 22.5 mg/kg | inactive | inactive | Active | Active | Active | Active | 136 nM | 394 nM | 1590 nM | 12% | 2.2 ×10⁻⁶ cm/s | 100 nM |
| CC1CCCN(CCCCCCOc2ccc3oc4ccc(Cl)cc4c(=O)c3c2)C1 (stereo not drawn) | 717 nM | < 50% |  |  |  |  |  |  |  |  |  | 307 nM | 1470 nM |  | 28% |  | 436 nM |
| CC1CCCN(CCCCCCOc2ccc3oc4ccccc4c(=O)c3c2)C1 (stereo not drawn) | 1550 nM | < 50% |  |  |  |  |  |  |  |  |  | 387 nM | 1150 nM |  | 4% |  | 100 nM |
| CC1CCN(CCCCCCOc2ccc3oc4ccccc4c(=O)c3c2)CC1 | 856 nM | < 50% |  |  |  |  |  |  |  |  |  | 406 nM | 965 nM |  | 6% |  | 97 nM |
| Clc1ccc(CCCOCCCN2CCCCC2)cc1 [PITOLISANT] |  |  |  |  |  |  |  |  |  |  |  |  |  |  | 9% |  |  |
| CC1CCCN(CCCCCCOc2ccc3oc4cc(Cl)ccc4c(=O)c3c2)C1 (stereo not drawn) | 1830 nM | < 50% |  |  |  |  |  |  |  |  |  | 384 nM | 2040 nM |  | 42% |  | 1100 nM |
| C#CCN(C)CCCOc1ccc(Cl)cc1Cl [CLORGILINE] |  |  |  |  |  |  |  |  |  |  |  |  |  |  | 1.8% |  |  |
| O=c1c2ccccc2oc2ccc(OCCCCCCN3CCCCCC3)cc12 | 385 nM | < 50% |  |  |  |  |  |  |  |  |  | 308 nM | 605 nM |  | 3% |  | 496 nM |
| CC1CCN(CCCCCOc2ccc3oc4cc(Cl)ccc4c(=O)c3c2)CC1 | 1540 nM | < 50% |  |  |  |  |  |  |  |  |  | 421 nM | 1610 nM |  | 22% |  | 448 nM |
| O=c1c2ccc(Cl)cc2oc2ccc(OCCCCCCN3CCCCC3)cc12 | 946 nM | < 50% |  |  |  |  |  |  |  |  |  | 378 nM | 1980 nM |  | 8% |  | 203 nM |
| CC1CCN(CCCCCOc2ccc3oc4ccccc4c(=O)c3c2)CC1 | 1860 nM | < 50% |  |  |  |  |  |  |  |  |  | 697 nM | 1090 nM |  | 1% |  | 110 nM |
| CC1CCCN(CCCCCOc2ccc3oc4ccccc4c(=O)c3c2)C1 (stereo not drawn) | 4200 nM | < 50% |  |  |  |  |  |  |  |  |  | 342 nM | 978 nM |  | 1% |  | 156 nM |
